Results published in US9624288B2, “Engineered receptors and their use” (University of Pittsburgh—Of the Commonwealth System of …, priority 2012, dated 2017).

Biological target: T1, EGRAFY mutant (R91A, F188Y; SEQ ID NO: 15) (Dickeya chrysanthemi, UniProt P0C7B7, F187Y/INS163G/R91A)
T1 construct: expressed in transfected cells; host or cells: Xenopus laevis oocytes
Assay: Two-electrode voltage clamp, amine agonist activation of the EGRAFY mutant in oocytes
Format: cell-based, Erwinia chrysanthemi / human
Experimental: For pH measurements, 10 mM MES was added. […] Non-linear regressions were performed using Prism software (Graphpad). […] (FIG. 2).

**Q.** Which EC50 does the source give for CCCN [propylamine] here?
**A.** 1.9 ± 0.2 µM
